# Laboratory results as given in patent publication US20170190671A1, “BIS(ARYL)CATECHOL DERIVATIVES AS HERBICIDES” (E I DU PONT DE NEMOURS AND COMPANY, priority 2014, published 2017).
# Assays:
# Type in all cases: in vivo
# [1] = system: johnsongrass (Sorghum halepense); assay: Test C preemergence; details: Sorghum halepense, pre-emergence, 336 h, scale 0 to 100, read-out: Plant response rating, Johnsongrass
# In short: (§1)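 Greenhouse test, preemergence on seeded soil or postemergence on 1- to 4-leaf plants. Response is a visual 0-100 rating versus controls, taken 13-15 days after treatment.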
# [2] = system: barnyardgrass (Echinochloa crus-galli); assay: Test C preemergence; details: Echinochloa crus-galli, pre-emergence, read-out: Plant response rating, Barnyardgrass
# In short: as §1
# [3] = system: galium (catchweed bedstraw, Galium aparine); assay: Test C preemergence; details: Galium, pre-emergence, 336 h, scale 0 to 100, read-out: Plant response rating, Galium
# In short: as §1
# [4] = system: waterhemp (common waterhemp, Amaranthus rudis); assay: Test C postemergence; details: Amaranthus tuberculatus, post-emergence, Postemergence, scale 0 to 100, read-out: Plant response rating, Waterhemp
# In short: as §1
# [5] = system: giant foxtail (Setaria faberii); assay: Test C postemergence; details: Setaria faberi, post-emergence, 336 h, Postemergence, scale 0 to 100, read-out: Plant response rating, Foxtail, Giant
# In short: as §1
# [6] = system: chickweed (common chickweed, Stellaria media); assay: Test C postemergence; details: Stellaria media, post-emergence, Postemergence, scale 0 to 100, read-out: Plant response rating, Chickweed
# In short: as §1
# soybean (Glycine max) = assay: Test C postemergence; details: Glycine max, post-emergence, Postemergence, scale 0 to 100, read-out: Plant response rating, Soybean
# In short: as §1
# [7] = system: yellow nutsedge (Cyperus esculentus); assay: Test C postemergence; details: Cyperus, post-emergence, 336 h, Postemergence, scale 0 to 100, read-out: Plant response rating, Nutsedge, Yellow
# In short: as §1
# [8] = system: johnsongrass (Sorghum halepense); assay: Test C postemergence; details: Sorghum halepense, post-emergence, 336 h, Postemergence, scale 0 to 100, read-out: Plant response rating, Johnsongrass
# In short: as §1
# [9] = system: blackgrass (Alopecurus myosuroides); assay: Test C postemergence; details: Alopecurus myosuroides, post-emergence, 336 h, Postemergence, scale 0 to 100, read-out: Plant response rating, Blackgrass
# In short: as §1
# [10] = system: velvetleaf (Abutilon theophrasti); assay: Test C postemergence; details: Abutilon theophrasti, post-emergence, Postemergence, scale 0 to 100, read-out: Plant response rating, Velvetleaf
# In short: as §1
# [11] = system: oilseed rape (Brassica napus); assay: Test C postemergence; details: Brassica napus, post-emergence, Postemergence, scale 0 to 100, read-out: Plant response rating, Oilseed Rape
# In short: as §1
# [12] = system: lambsquarters (Chenopodium album); assay: Test C postemergence; details: Chenopodium album, post-emergence, 336 h, Postemergence, scale 0 to 100, read-out: Plant response rating, Lambsquarters
# In short: as §1
# [13] = system: winter wheat (Triticum aestivum); assay: Test C postemergence; details: Triticum aestivum, post-emergence, 336 h, Postemergence, scale 0 to 100, read-out: Plant response rating, Wheat
# In short: as §1
# [14] = system: large (Lg) crabgrass (Digitaria sanguinalis); assay: Test C postemergence; details: Digitaria sanguinalis, post-emergence, 336 h, Postemergence, scale 0 to 100, read-out: Plant response rating, Crabgrass, Large
# In short: as §1
# wild oat (Avena fatua) = assay: Test C postemergence; details: Avena fatua, post-emergence, Postemergence, scale 0 to 100, read-out: Plant response rating, Oat, Wild
# In short: as §1
# [15] = system: Italian ryegrass (Lolium multiflorum); assay: Test C postemergence; details: Lolium multiflorum, post-emergence, 336 h, Postemergence, scale 0 to 100, read-out: Plant response rating, Ryegrass, Italian
# In short: as §1
# [16] = system: ragweed (common ragweed, Ambrosia elatior); assay: Test C postemergence; details: Ambrosia artemisiifolia, post-emergence, 336 h, Postemergence, scale 0 to 100, read-out: Plant response rating, Ragweed
# In short: as §1
# [17] = system: morningglory (Ipomoea coccinea); assay: Test C postemergence; details: Ipomoea, post-emergence, 336 h, Postemergence, scale 0 to 100, read-out: Plant response rating, Morningglory
# In short: as §1
# [18] = system: barnyardgrass (Echinochloa crus-galli); assay: Test C postemergence; details: Echinochloa crus-galli, post-emergence, Postemergence, scale 0 to 100, read-out: Plant response rating, Barnyardgrass
# In short: as §1
# corn (Zea mays) = assay: Test C postemergence; details: Zea mays, post-emergence, 336 h, Postemergence, scale 0 to 100
# In short: as §1
# [19] = system: galium (catchweed bedstraw, Galium aparine); assay: Test C postemergence; details: Galium, post-emergence, 336 h, Postemergence, scale 0 to 100, read-out: Plant response rating, Galium
# In short: as §1
compound,measurement,setting,value
"N#Cc1cccc(Oc2ncc(Cl)cn2)c1Oc1ncc(C(F)(F)F)cn1 [Compound 38, 3-[(5-chloro-2-pyrimidinyl)oxy]-2-[[5-(trifluoromethyl)-2-pyrimidinyl]oxy]-benzonitrile]",pest or weed control at 31 g/ha,"[1]; 31 g ai/ha, preemergence",85%
same,pest or weed control at 62 g/ha,"[1]; 62 g ai/ha, preemergence",85%
same,pest or weed control at 125 g/ha,"[1]; 125 g ai/ha, preemergence",100%
same,pest or weed control at 16 g/ha,"[1]; Preemergence, 16 g ai/ha",45%
same,pest or weed control at 31 g/ha,"[2]; 31 g ai/ha, preemergence, scale 0 to 100",85%
same,pest or weed control at 62 g/ha,"[2]; 62 g ai/ha, preemergence, scale 0 to 100",100%
same,pest or weed control at 125 g/ha,"[2]; 125 g ai/ha, preemergence, scale 0 to 100",100%
same,pest or weed control at 16 g/ha,"[2]; Preemergence, 16 g ai/ha, scale 0 to 100 (0 no effect, 100 complete control)",50%
same,pest or weed control at 31 g/ha,"[3]; 31 g ai/ha, preemergence",90%
same,pest or weed control at 62 g/ha,"[3]; 62 g ai/ha, preemergence",100%
same,pest or weed control at 125 g/ha,"[3]; 125 g ai/ha, preemergence",100%
same,pest or weed control at 16 g/ha,"[3]; Preemergence, 16 g ai/ha",80%
same,pest or weed control at 31 g/ha,[4]; 31 g ai/ha,75%
same,pest or weed control at 62 g/ha,[4]; 62 g ai/ha,85%
same,pest or weed control at 125 g/ha,[4]; 125 g ai/ha,95%
same,pest or weed control at 16 g/ha,[5]; 16 g ai/ha,5%
same,pest or weed control at 31 g/ha,[5]; 31 g ai/ha,10%
same,pest or weed control at 62 g/ha,[5]; 62 g ai/ha,10%
same,pest or weed control at 125 g/ha,[5]; 125 g ai/ha,25%
same,pest or weed control at 16 g/ha,[6]; 16 g ai/ha,50%
same,pest or weed control at 31 g/ha,[6]; 31 g ai/ha,50%
same,pest or weed control at 62 g/ha,[6]; 62 g ai/ha,70%
same,pest or weed control at 125 g/ha,[6]; 125 g ai/ha,85%
same,plant injury at 31 g/ha,soybean (Glycine max); 31 g ai/ha,85%
same,plant injury at 62 g/ha,soybean (Glycine max); 62 g ai/ha,50%
same,plant injury at 125 g/ha,soybean (Glycine max); 125 g ai/ha,80%
same,pest or weed control at 31 g/ha,[7]; 31 g ai/ha,0%
same,pest or weed control at 62 g/ha,[7]; 62 g ai/ha,5%
same,pest or weed control at 125 g/ha,[7]; 125 g ai/ha,10%
same,pest or weed control at 16 g/ha,[8]; 16 g ai/ha,5%
same,pest or weed control at 31 g/ha,[8]; 31 g ai/ha,5%
same,pest or weed control at 62 g/ha,[8]; 62 g ai/ha,5%
same,pest or weed control at 125 g/ha,[8]; 125 g ai/ha,10%
same,pest or weed control at 16 g/ha,[9]; 16 g ai/ha,0%
same,pest or weed control at 31 g/ha,[9]; 31 g ai/ha,0%
same,pest or weed control at 62 g/ha,[9]; 62 g ai/ha,10%
same,pest or weed control at 125 g/ha,[9]; 125 g ai/ha,15%
same,pest or weed control at 31 g/ha,[10]; 31 g ai/ha,65%
same,pest or weed control at 62 g/ha,[10]; 62 g ai/ha,55%
same,pest or weed control at 125 g/ha,[10]; 125 g ai/ha,60%
same,plant injury at 31 g/ha,[11]; 31 g ai/ha,20%
same,plant injury at 62 g/ha,[11]; 62 g ai/ha,25%
same,plant injury at 125 g/ha,[11]; 125 g ai/ha,5%
same,pest or weed control at 16 g/ha,[12]; 16 g ai/ha,65%
same,pest or weed control at 31 g/ha,[12]; 31 g ai/ha,70%
same,pest or weed control at 62 g/ha,[12]; 62 g ai/ha,80%
same,pest or weed control at 125 g/ha,[12]; 125 g ai/ha,90%
same,plant injury at 31 g/ha,[13]; 31 g ai/ha,0%
same,plant injury at 62 g/ha,[13]; 62 g ai/ha,0%
same,plant injury at 125 g/ha,[13]; 125 g ai/ha,0%
same,pest or weed control at 16 g/ha,[14]; 16 g ai/ha,5%
same,pest or weed control at 31 g/ha,[14]; 31 g ai/ha,10%
same,pest or weed control at 62 g/ha,[14]; 62 g ai/ha,10%
same,pest or weed control at 125 g/ha,[14]; 125 g ai/ha,30%
same,pest or weed control at 31 g/ha,wild oat (Avena fatua); 31 g ai/ha,5%
same,pest or weed control at 62 g/ha,wild oat (Avena fatua); 62 g ai/ha,10%
same,pest or weed control at 125 g/ha,wild oat (Avena fatua); 125 g ai/ha,10%
same,pest or weed control at 31 g/ha,[15]; 31 g ai/ha,5%
same,pest or weed control at 62 g/ha,[15]; 62 g ai/ha,5%
same,pest or weed control at 125 g/ha,[15]; 125 g ai/ha,5%
same,pest or weed control at 31 g/ha,[16]; 31 g ai/ha,55%
same,pest or weed control at 62 g/ha,[16]; 62 g ai/ha,70%
same,pest or weed control at 125 g/ha,[16]; 125 g ai/ha,50%
same,pest or weed control at 31 g/ha,[17]; 31 g ai/ha,85%
same,pest or weed control at 62 g/ha,[17]; 62 g ai/ha,85%
same,pest or weed control at 125 g/ha,[17]; 125 g ai/ha,90%
same,pest or weed control at 16 g/ha,[18]; 16 g ai/ha,10%
same,pest or weed control at 31 g/ha,[18]; 31 g ai/ha,20%
same,pest or weed control at 62 g/ha,[18]; 62 g ai/ha,20%
same,pest or weed control at 125 g/ha,[18]; 125 g ai/ha,35%
same,"Corn plant response rating (crop injury, 0 = no effect, 100 = complete kill) at 16 g/ha",corn (Zea mays); 16 g ai/ha,10%
same,"Corn plant response rating (crop injury, 0 = no effect, 100 = complete kill) at 31 g/ha",corn (Zea mays); 31 g ai/ha,20%
same,"Corn plant response rating (crop injury, 0 = no effect, 100 = complete kill) at 62 g/ha",corn (Zea mays); 62 g ai/ha,15%
same,"Corn plant response rating (crop injury, 0 = no effect, 100 = complete kill) at 125 g/ha",corn (Zea mays); 125 g ai/ha,15%
same,pest or weed control at 16 g/ha,[19]; 16 g ai/ha,70%
same,pest or weed control at 31 g/ha,[19]; 31 g ai/ha,85%
same,pest or weed control at 62 g/ha,[19]; 62 g ai/ha,90%
same,pest or weed control at 125 g/ha,[19]; 125 g ai/ha,90%
